Test results: the supplement of paper PMC12317010
Counter-ions that a name gives are not always drawn.

Assay: collision cross section in nitrogen (drift tube, single-field); higher = larger gas-phase ion size
[1] = ion type: [M+Na], ion source: ESI, ion mode: Positive
[2] = ion type: [M-H], ion source: ESI, ion mode: Negative
[3] = ion type: [M+H], ion source: APCI, ion mode: Positive
[4] = ion type: [M+H], ion source: ESI, ion mode: Positive
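Further: chemical standards at 10 µM analysed by drift tube IMS-QTOF MS in about 3.95 torr nitrogen, mean of duplicate injections differing ≤1%, mass error below 10 ppm.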

Row | SMILES | collision cross section in nitrogen [1] [Å²] | collision cross section in nitrogen [2] [Å²] | collision cross section in nitrogen [3] [Å²] | collision cross section in nitrogen [4] [Å²] | further results
1 | CCCCCCCCCCCCCC[P+](CCCC)(CCCC)CCCC [Tributyltetradecylphosphonium chloride] | – | – | – | – | collision cross section in nitrogen (ion source: APCI, ion mode: Positive, ion type: [M]+ (permanent cation)): 224 Å²; collision cross section in nitrogen (ion source: ESI, ion mode: Positive, ion type: [M]+ (permanent cation)): 224.5 Å²
2 | COP(=O)(OC)C(O)C(Cl)(Cl)Cl (centres undefined) [Trichlorfon] | 151.7 | – | – | – | –
3 | CCCCOCCOC(=O)COc1nc(Cl)c(Cl)cc1Cl [Triclopyr 2-butoxyethyl ester] | 176.3 | – | – | – | –
4 | C=CC(=O)OCC1CC2CC1C1CCC(COC(=O)C=C)C21 (centres undefined) [Tricyclodecanedimethanol diacrylate] | 176.9 | – | – | – | –
5 | CCOC(=O)CP(=O)(OCC)OCC [Triethyl phosphonoacetate] | 155 | – | 143.6 | 143.7 | –
6 | CO/N=C(/C(=O)OC)c1ccccc1CO/N=C(\C)c1cccc(C(F)(F)F)c1 [Trifloxystrobin] | 193 | – | 187.4 | 187.2 | –
7 | COc1cc(OC)nc(NC(=O)NS(=O)(=O)c2ncccc2OCC(F)(F)F)n1 [Trifloxysulfuron-sodium] | 194.5 | 190.2 | – | 192 | –
8 | CCCOC/C(=N\c1ccc(Cl)cc1C(F)(F)F)n1ccnc1 [Triflumizole] | – | 170.3 | 179.8 | 180 | –
9 | O=C(NC(=O)c1ccccc1Cl)Nc1ccc(OC(F)(F)F)cc1 [Triflumuron] | 186.6 | 179.1 | – | – | –
10 | O=S(=O)(O)C(F)(F)F [Trifluoromethanesulfonic acid] | – | 110.8 | – | – | –
11 | CCCN(CCC)c1c([N+](=O)[O-])cc(C(F)(F)F)cc1[N+](=O)[O-] [Trifluralin] | – | 169.2 | – | – | –
12 | CC(C)COP(=O)(OCC(C)C)OCC(C)C [Triisobutyl phosphate] | 183.6 | – | – | – | –
13 | CC(O)CN(CC(C)O)CC(C)O (centres undefined) [Triisopropanolamine] | 143.9 | – | 141.3 | 141.5 | –
14 | C[C@]12CC[C@H]3[C@@H](CC[C@@]45O[C@@H]4C(O)=C(C#N)C[C@]35C)[C@@H]1CC[C@@H]2O [Trilostane] | – | 186.2 | – | – | –
15 | C=CC(=O)OCC(CC)(COC(=O)C=C)COC(=O)C=C [Trimethylolpropane triacrylate] | 165.9 | – | – | – | –
16 | C(=C(c1ccccc1)c1ccccc1)c1ccccc1 [Triphenylethylene] | – | – | – | 153.5 | –

Row | SMILES | collision cross section in nitrogen [1] [Å²] | collision cross section in nitrogen [2] [Å²] | collision cross section in nitrogen [3] [Å²] | collision cross section in nitrogen [4] [Å²] | further results
17 | O=P(c1ccccc1)(c1ccccc1)c1ccccc1 [Triphenylphosphine oxide] | 182.6 | – | 163 | 162.9 | –
18 | O[Si](c1ccccc1)(c1ccccc1)c1ccccc1 [Triphenylsilanol] | – | 171 | – | – | –
19 | CCCOP(=O)(OCCC)OCCC [Tripropyl phosphate] | 168.5 | – | – | – | –
20 | O=P(OCCCl)(OCCCl)OCCCl [Tris(2-chloroethyl) phosphate] | 160.2 | – | – | – | –
21 | CC(CCl)OP(=O)(OC(C)CCl)OC(C)CCl (centres undefined) [Tris(2-chloroisopropyl)phosphate] | 171.9 | – | – | – | –
22 | CCCCC(CC)COC(=O)c1ccc(C(=O)OCC(CC)CCCC)c(C(=O)OCC(CC)CCCC)c1 (centres undefined) [Tris(2-ethylhexyl) trimellitate] | 264.6 | – | – | 256.5 | –
23 | Cc1ccc(OP(=O)(Oc2ccc(C)cc2)Oc2ccc(C)cc2)cc1 [Tris(4-methylphenyl) phosphate] | 200.1 | – | 191 | 190.1 | –
24 | S=c1[nH]c(=S)[nH]c(=S)[nH]1 [Trisodium 2,4,6-trithioxo-1,3,5-triazinane-1,3,5-triide] | – | 125.6 | – | – | –
25 | CC1(C)CCC(=Cc2ccc(Cl)cc2)C1(O)Cn1cncn1 (centres undefined) [Triticonazole] | 189 | – | 181.7 | 180.6 | –
26 | ClC(c1ccccc1)(c1ccccc1)c1ccccc1 [Trityl chloride] | – | – | 162.5 | – | –
27 | Cc1ccc(OP(=O)(Oc2ccc(C)cc2C)Oc2ccc(C)cc2C)c(C)c1 [Trixylyl phosphate] | 212.6 | – | 204.2 | 203.1 | –
28 | Clc1ccc(Nc2nnc(Cc3ccncc3)c3ccccc23)cc1 [Vatalanib dihydrochloride] | 191.4 | 188.9 | 188 | 187.6 | –
29 | COc1ccc(C(CN(C)C)C2(O)CCCCC2)cc1 (centres undefined) [Venlafaxine hydrochloride] | 177.7 | – | 170.8 | 170.7 | –
30 | C=CC1(C)OC(=O)N(c2cc(Cl)cc(Cl)c2)C1=O (centres undefined) [Vinclozolin] | – | 154.4 | – | – | –
31 | COP(=O)(OC)O/C(=C\Cl)c1cc(Cl)c(Cl)cc1Cl [Z-Tetrachlorvinphos] | 177.9 | – | – | – | –

Now from value to compound, other results behind:

Row | collision cross section in nitrogen [1] [Å²] | collision cross section in nitrogen [2] [Å²] | collision cross section in nitrogen [3] [Å²] | collision cross section in nitrogen [4] [Å²] | SMILES | further results
32 | 202.7 | – | – | – | CCCCOC(=O)CC(O)(CC(=O)OCCCC)C(=O)OCCCC [Tributyl citrate] | –
33 | 231.4 | – | – | – | CCCCCCCC(=O)OCC(COC(=O)CCCCCCC)OC(=O)CCCCCCC [Tricaprylin] | –
34 | – | 169 | – | – | O=C(Nc1ccc(Cl)cc1)Nc1ccc(Cl)c(Cl)c1 [Triclocarban] | –
35 | 169.1 | – | – | – | CCOC(=O)CC(O)(CC(=O)OCC)C(=O)OCC [Triethyl citrate] | –
36 | 207.3 | – | – | – | CCCCC(CC)C(=O)OCCOCCOCCOC(=O)C(CC)CCCC (centres undefined) [Triethylene glycol bis(2-ethylhexanoate)] | –
37 | 151.3 | – | – | – | CC(=O)OCCOCCOCCOC(C)=O [Triethylene glycol diacetate] | –
38 | 138.1 | – | – | – | COCCOCCOCCOC [Triethylene glycol dimethyl ether] | –
39 | 131.5 | – | – | – | OCCOCCOCCO [Triethylene glycol] | –
40 | – | 146.5 | – | – | O=C(O)c1ccc2c(c1)C(=O)OC2=O [Trimellitic anhydride] | –
41 | – | – | – | 140.4 | CC(CCCCN)C(C)(C)N (centres undefined) [Trimethylhexane-1,6-diamine] | –
42 | 167.5 | – | – | – | CCOC(=O)C1CC(=O)C(=C(O)C2CC2)C(=O)C1 (centres undefined) [Trinexapac-ethyl] | –
43 | 161.2 | – | – | – | CCC(=O)OCC(COC(=O)CC)OC(=O)CC [Tripropionin] | –
44 | 169.9 | – | – | – | C=CC(=O)OCC(C)OCC(C)OCC(C)OC(=O)C=C (centres undefined) [Tripropylene glycol diacrylate] | –
45 | 148.8 | – | – | – | COCC(C)OCC(C)OCC(C)O (centres undefined) [Tripropylene glycol monomethyl ether] | –
46 | 144.9 | – | – | – | CC(O)COC(C)COC(C)CO (centres undefined) [Tripropylene glycol] | –
47 | 163.2 | – | 158.6 | 160.1 | O=c1n(CC2CO2)c(=O)n(CC2CO2)c(=O)n1CC1CO1 (centres undefined) [Tris(2,3-epoxypropyl)isocyanurate] | –

Row | collision cross section in nitrogen [1] [Å²] | collision cross section in nitrogen [2] [Å²] | collision cross section in nitrogen [3] [Å²] | collision cross section in nitrogen [4] [Å²] | SMILES | further results
48 | 171.4 | – | – | – | CC(Cl)COP(=O)(OCC(C)Cl)OCC(C)Cl (centres undefined) [Tris(2-chloropropyl) phosphate] | –
49 | 231.9 | – | – | – | CCCCC(CC)COP(=O)(OCC(CC)CCCC)OCC(CC)CCCC (centres undefined) [Tris(2-ethylhexyl) phosphate] | –
50 | 159.3 | – | – | – | O=c1n(CCO)c(=O)n(CCO)c(=O)n1CCO [Tris(2-hydroxyethyl) isocyanurate] | –
51 | – | 193.9 | – | – | Cc1c(C)c2c(c(C)c1O)CCC(C)(COc1ccc(CC3SC(=O)NC3=O)cc1)O2 (centres undefined) [Troglitazone] | –
52 | – | 127.4 | – | – | O=c1ccc2ccc(O)cc2o1 [Umbelliferone] | –
53 | – | 149 | – | – | O=C(O)CCCCCCCCCC(=O)O [Undecanedioic acid] | –
54 | – | 126.4 | – | – | O=c1[nH]c(=O)c2[nH]c(=O)[nH]c2[nH]1 [Uric acid] | –
55 | – | 177.1 | – | – | CC(=O)c1c(O)c(C)c(O)c2c1OC1=CC(=O)C(C(C)=O)C(=O)C12C (centres undefined) [Usnic acid] | –
56 | – | 137.1 | – | – | CCCC(CCC)C(=O)O [Valproic acid] | –
57 | – | – | 182.5 | 183.2 | CC[C@]12CCCN3CCc4c(n(c5ccccc45)[C@@](O)(C(=O)OC)C1)[C@@H]32 [Vincamine] | –
58 | 188 | – | 185 | 185 | COc1cccc([C@H](O)C2CCN(CCc3ccc(F)cc3)CC2)c1OC [Volinanserin] | –
59 | 179.1 | 172.2 | 167.4 | 166.9 | CC(=O)CC(c1ccccc1)c1c(O)c2ccccc2oc1=O (centres undefined) [Warfarin] | –
60 | 175.7 | – | 171.8 | 171.7 | CN(CCO)CC(O)Cn1cnc2c1c(=O)n(C)c(=O)n2C (centres undefined) [Xanthinol niacinate] | –
61 | – | – | 135.2 | – | O=c1c2ccccc2oc2ccccc12 [Xanthone] | –
62 | 213 | 216.1 | 208.6 | 208.6 | CCOC(=O)CN[C@@H](C(=O)N1CC[C@H]1C(=O)NCc1ccc(/C(N)=N/O)cc1)C1CCCCC1 [Ximelagatran] | –
63 | 262.5 | – | 240.1 | 239 | Cc1occc1C(=O)Nc1ccc(C(=O)N2CCC(F)(F)/C(=C\C(=O)N3CCC(N4CCCCC4)CC3)c3ccccc32)cc1 [YM 218] | –
